# Molecular target: T1, bacterial cell enzyme (E. coli expressing CH polymerase K4CP) (Escherichia coli, UniProt Q8L0V4)
# T1 construct: His tag (from vector pTrcHis); expressed in transfected cells; host or cells: E. coli transformed with the pTrcHis-K4CP vector and induced with IPTG; The whole-cell pellet was used as the enzyme; TOP10 is named only as the preferred host
# Assay: Incorporation of [3H]GalNAc into the polymer (CH) fraction by the bacterial cell enzyme
# Format: biochemical, Escherichia coli K4 strain
# Conditions: for influence of surfactant on incorporation of [3H]GalNAc: FIG. 4
# Experimental: According to the method described in Japanese Patent Application No. 2003-199583, the gene of the CH polymerase (K4CP) enzyme derived from E. coli and an expression vector were prepared. the plasmid pTrcHis (manufactured by Invitrogen Corporation) was used as the expression vector. The expression vector obtained by the method was introduced to E. coli. The E. coli was cultured at 37° C. in an ampicillin-containing LB medium until absorbance of the culture medium reached about 0.6 at a wavelength of 600 nm. β-isopropylthiogalactoside (IPTG), which is an expression induction molecule, was added to the culture medium in such an amount that attains a final concentration of 1 mM, and culture was further performed at 37° C. for 3 hours to induce an enzyme expression. 1 ml of the culture medium was taken and transferred to a centrifugation tube to undergo centrifugation at 10,000 rpm for 1 minute. After the supernatant was discarded, a cell precipitate was used a bacterial cell enzyme. Further, the cell precipitate can maintain the enzymatic activity at least for 1 year by storing at −80° C.
# To the bacterial cell enzyme obtained in Example 1, 50 mM of Tris-HCl (pH of 7.2) buffer solution containing 20 mM of MnCl2, 150 mM of NaCl, 0.1 nmol of CH6, 3 nmol of UDP-GalNAc, 0.2 μCi of UDP-[^3H] GalNAc, and 3 nmol of UDP-GlcUA, and a surfactant (Nymeen S-215; manufactured by NOF CORPORATION) at a final concentration of 0, 0.1, 0.2, 0.4, 1.0, or 2.0% was added and suspended. Each of the suspensions was shaken at 30° C. for 15 hours. After the reaction, each of the suspensions was heat-treated for 10 minutes in boiling water, and then centrifuged at 15,000 rpm for 5 minutes to remove a precipitate. Each of the supernatants was subjected to gel filtration using Superdex peptide HR 10/30 column (manufactured by Amersham Biosciences Co., Ltd.). The sugar chains in each of the eluted solutions were detected based on the absorbance at 225 nm.
# An eluted fraction which corresponds to the absorption peak residing in a polymer region was obtained, and an incorporation of [^3H] GalNAc was detected. The incorporation was shown by the ratio (%) of the incorporated radioactivity with respect to the total radioactivity as 100%.
# The same test as Example 3 was performed using various kinds of surfactants each having a final concentration of 0.4% to examine how various kinds of surfactants influence on the incorporation of [^3H] GalNAc. As an enzyme, the bacterial cell enzyme produced in Example 1 was used. Further, the surfactants used are described below.
# The same test as Example 3 was performed using various kinds of organic solvents each having a final concentration of 1% to examine the influence of the various kinds of organic solvents on the incorporation of [^3H] GalNAc. As an enzyme, the bacterial cell enzyme prepared in Example 1 was used. Further, the organic solvents used are described below.
# The incorporation was shown by the ratio (%) of the incorporated radioactivity with respect to the total radioactivity of [^3H] GalNAc used as 100%. It should be noted that the term “without organic solvent” in FIG. 5 means a case where the bacterial cell enzyme was reacted in the absence of organic solvents.
# Besides, in order to examine the concentration dependency in the case of using chloroform as an organic solvent, the same test as Example 3 was performed by setting chloroform concentration in the enzyme reaction solution to 0, 0.5, 1.0, 2.0, 5.0, or 10.0%, thereby the amount of incorporation of [^3H] GalNAc in the polymer fraction was examined.
# [1] = surfactant final concentration 0.4%
# T1 sequence (Q8L0V4 whole entry): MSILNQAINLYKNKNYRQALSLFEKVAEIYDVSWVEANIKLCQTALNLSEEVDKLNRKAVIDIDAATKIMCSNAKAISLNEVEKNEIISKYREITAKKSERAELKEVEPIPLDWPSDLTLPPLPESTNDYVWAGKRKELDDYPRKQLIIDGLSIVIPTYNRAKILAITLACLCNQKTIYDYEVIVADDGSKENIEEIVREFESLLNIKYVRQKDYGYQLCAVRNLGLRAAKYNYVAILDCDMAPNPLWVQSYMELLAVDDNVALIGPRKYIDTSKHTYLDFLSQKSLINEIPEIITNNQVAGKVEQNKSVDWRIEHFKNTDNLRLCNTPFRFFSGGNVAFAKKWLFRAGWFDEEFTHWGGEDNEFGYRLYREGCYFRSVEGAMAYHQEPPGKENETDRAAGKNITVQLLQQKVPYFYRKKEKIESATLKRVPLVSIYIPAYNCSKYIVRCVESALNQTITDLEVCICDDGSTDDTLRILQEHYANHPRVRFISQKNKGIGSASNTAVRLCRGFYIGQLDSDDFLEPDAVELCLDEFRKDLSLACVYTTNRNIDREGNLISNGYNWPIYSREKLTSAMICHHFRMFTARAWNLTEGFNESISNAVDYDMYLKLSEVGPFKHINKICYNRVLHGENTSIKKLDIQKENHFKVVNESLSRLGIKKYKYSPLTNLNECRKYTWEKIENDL
compound,measurement,setting,value
CCCCCCCCCS[C@@H]1O[C@H](CO)[C@@H](O[C@H]2O[C@H](CO)[C@@H](O)[C@H](O)[C@H]2O)[C@H](O)[C@H]1O [n-nonyl-β-D-thiomaltopyranoside],influence of surfactant on incorporation of [3H]GalNAc,[1],particularly efficient incorporation
Sucrose monocaprate,influence of surfactant on incorporation of [3H]GalNAc,[1],particularly efficient incorporation
Sucrose monolaurate,influence of surfactant on incorporation of [3H]GalNAc,[1],particularly efficient incorporation
polyoxyethylene octadecyl amine [Nymeen S-215],incorporation of [3H]GalNAc into the polymer fraction (ratio of incorporated to total radioactivity),"surfactant concentration 0.4% or more at the time of the enzyme reaction, 30° C., 15 hours, FIG. 1",about 37%
same,incorporation of used [3H]GalNAc into the polymer fraction,"surfactant final concentration 0.4%, Example 4, reconfirmation",about 37%
"ClC(Cl)Cl [chloroform, Chloroform]","incorporation of [3H]GalNAc in the polymer fraction, dependence on chloroform concentration","chloroform concentration more than 0% to less than 5% (tested 0, 0.5, 1.0, 2.0, 5.0, 10.0%), FIG. 6",promoted
same,influence of organic solvent on incorporation of [3H]GalNAc,"organic solvent final concentration 1%, FIG. 5",promoted the incorporation
